We go through seven compounds from patent US20240181022A1, “AMURINS LYSINS, AND LYSIN-ANTIMICROBIAL PEPTIDE (AMP) CONSTRUCTS ACTIVE AGAINST GRAM-NEGATIVE BACTERIA” (priority 2021, published 2024).

Values after ≈ are worked out from the molar mass of the structure shown. Values joined by “and” are separate entries in the source; they are usually repeats but may differ in a detail not shown here. Equal entries are not always repeated. Where two headings read alike, the source gives them in different places. Marks after values point to notes of the source that are not given here.

The test system of assay [1] is E. cloacae. In words: Checkerboard synergy assay (FICI) against E. cloacae. The assay is classed as cell-based, Enterobacter cloacae. As to conditions: E. cloacae ATCC 13047. Here is the method:
(§1) Any known method to assess MIC may be used.
(§2) Checkerboards are constructed by first preparing columns of e.g., a 96-well polypropylene microtiter plate, wherein each well has the same amount of antibiotic diluted 2-fold along the horizontal axis. […] Bacteria are added to the drug combinations at concentrations of 1×10^5 […] in CAA, for example, with or without human serum or pulmonary surfactant. […] Summation fractional inhibitory concentrations (ΣFICs) are calculated for each drug and the minimum ΣFIC value (ΣFICmin) is used to determine the effect of the Chp peptide/antibiotic combination.
(§3) GN370 was further tested in combination with up to seven additional antibiotics (in addition to meropenem) against a variety of bacterial strains, including P. aeruginosa, A. baumannii, E. coli, E. cloacae, and K. pneumoniae. GN370 and the subject antibiotics were tested in a checkerboard assay format, and FICI values were determined, wherein ≤0.5 indicates synergy, >0.5-≤1 indicates additive; and >1 indicates indifferent.

Assay [2] has as its system K. pneumoniae. In words: Checkerboard synergy assay (FICI) against K. pneumoniae. The assay is classed as cell-based, Klebsiella pneumoniae. The conditions noted are these: K. pneumoniae HM-44. As for the experimental part: as §1, §2, §3
The test system of assay [3] is P. aeruginosa. In words: Checkerboard synergy assay (FICI) with antibiotics against P. aeruginosa. In kind it is cell-based, Pseudomonas aeruginosa. As to conditions: for FICI of the antibiotic with GN370: P. aeruginosa ATCC 27853, checkerboard; for Antibiotic MIC (single agent): P. aeruginosa strain AR-769; for Antibiotic FIC / Antibiotic MIC (combo): P. aeruginosa strain AR-769, in combination with GN370; for Antibiotic MIC (combo): in µg/mL. As for the experimental part: as §1, §2
The synergy of GN370 with meropenem was evaluated against 3 different strains of P. aeruginosa and three different strains of B. cenocepacia.
as §3

For assay [4], the system named is A. baumannii. The experiment in a line: Checkerboard synergy assay (FICI) against A. baumannii. In kind it is cell-based, Acinetobacter baumannii. As to conditions: A. baumannii ATCC BAA-747. As for the experimental part: as §1, §2, §3
Assay [5] has as its system P. aeruginosa.
Assay [6] has as its system E. coli. The experiment in a line: Checkerboard synergy assay (FICI) against E. coli. The assay is classed as cell-based, Escherichia coli. The conditions noted are these: E. coli ATCC 25922.
From the text: In some embodiments, the Chp peptides disclosed herein or active fragments thereof reduce the minimum inhibitory concentration (MIC) of an antibiotic in the presence and/or absence of human serum, pulmonary surfactant, and/or sputum, including human sputum and human sputum from a cystic fibrosis patient. Any known method to assess MIC may be used. In some embodiments, a checkerboard assay is used to determine the effect of a Chp peptide or active fragment thereof on antibiotic concentration. The checkerboard assay is based on a modification of the CLSI method for MIC determination by broth microdilution (See Clinical and Laboratory Standards Institute (CLSI), CLSI. 2015. Methods for Dilution Antimicrobial Susceptibility Tests for Bacteria That Grow Aerobically; Approved Standard-10th Edition. Clinical and Laboratory Standards Institute, Wayne, PA, which is herein incorporated by reference in its entirety and Ceri et al. 1999. J. Clin. Microbiol. 37: 1771-1776, which is also herein incorporated by reference in its entirety).
Checkerboards are constructed by first preparing columns of e.g., a 96-well polypropylene microtiter plate, wherein each well has the same amount of antibiotic diluted 2-fold along the horizontal axis. […] The Chp peptide or active fragment thereof and antibiotic dilutions are then combined, so that each column has a constant amount of antibiotic and doubling dilutions of Chp peptide, while each row has a constant amount of Chp peptide and doubling dilutions of antibiotic. Each well thus has a unique combination of Chp peptide and antibiotic. Bacteria are added to the drug combinations at concentrations of 1×10^5 GFU/ml in CAA, for example, with or without human serum or pulmonary surfactant. […] Summation fractional inhibitory concentrations (ΣFICs) are calculated for each drug and the minimum ΣFIC value (ΣFICmin) is used to determine the effect of the Chp peptide/antibiotic combination.
as §3

For assay [7], the system named is P. aeruginosa AR-769. In words: GN370 in the rabbit pneumonia model. The assay is classed as in vivo, New Zealand White rabbits. As to conditions: amikacin-alone or GN370-alone.
The test system of assay [8] is P. aeruginosa AR-769. In words: Repeat dose study of AM1 in the rabbit pulmonary infection model. The assay is classed as in vivo.
For assay [9], the system named is P. aeruginosa. In words: Serial passage resistance development study, P. aeruginosa. The assay is classed as cell-based, Pseudomonas aeruginosa. The conditions noted are these: for MIC: Pseudomonas aeruginosa.
Assay [10] deals with P. aeruginosa. As to conditions: 21 day serial passage, literature; cited from earlier work.
The subject of assay [11] is E. coli (ATCC 25922). In words: microbe, parasite or virus in culture. In kind it is cell-based, Escherichia coli.
In assay [12] the test system is K. pneumoniae (1_1_5 HM-44). The experiment in a line: microbe, parasite or virus in culture. In kind it is cell-based, Klebsiella pneumoniae.
Assay [13] has as its system A. xylosoxidans. In words: Serial passage resistance development study, A. xylosoxidans. In kind it is cell-based, Achromobacter xylosoxidans. The conditions noted are these: for change in MIC over serial passage: A. xylosoxidans; for MIC: Achromobacter xylosoxidans.
Assay [14] has as its system E. cloacae (ATCC 13047). The experiment in a line: microbe, parasite or virus in culture. In kind it is cell-based, Enterobacter cloacae.
In assay [15] the test system is A. baumannii (ATCC BAA-747). In words: microbe, parasite or virus in culture. The assay is classed as cell-based, Acinetobacter baumannii.
Assay [16] concerns S. maltophilia. The experiment in a line: Serial passage resistance development study, S. maltophilia. The assay is classed as cell-based, Stenotrophomonas maltophilia. The conditions noted are these: for MIC: Stenotrophomonas maltophilia.
The test system of assay [17] is M. avium. In words: MIC against M. avium. In kind it is cell-based, Mycobacterium avium. As to conditions: M. avium (ATCC 700898); CAAT media.
The mark [18] stands for this setting: rabbit, amikacin 16 mg/kg i.v. every 8 hours (n = 17).
Where [19] appears, read: 672 h, read-out: MIC after 28-day serial passage.
Setting [20] is: read-out: MIC at start of serial passage.

As for `C[C@H]1[C@H](NC(=O)/C(=N\OC(C)(C)C(=O)O)c2csc(N)n2)C(=O)N1S(=O)(=O)O` [Aztreonam], the “FICI of the antibiotic with GN370” value in assay [1] is on record as 0.25; in [2] it was 0.375; in [3] it was 0.375; in assay [4] it was 0.313.

Compound `NCC[C@H](O)C(=O)N[C@@H]1C[C@H](N)[C@@H](O[C@H]2O[C@H](CN)[C@@H](O)[C@H](O)[C@H]2O)[C@H](O)[C@H]1O[C@H]1O[C@H](CO)[C@@H](O)[C@H](N)[C@H]1O` [amikacin, reference compound] gave an MIC in [5] (XDR P. aeruginosa strain AR-769) of 8 µg/mL (≈ 13.7 µM). In addition, in assay [1], the “FICI of the antibiotic with GN370” value is given as 0.75. In assay [2], the “FICI of the antibiotic with GN370” value is 0.375. In [3], the “FICI of the antibiotic with GN370” value was 0.375, the Antibiotic MIC (single agent) was 0.5 µg/mL, the “Antibiotic FIC” value is given as 0.25 and the “Antibiotic MIC (combo)” value came out at 0.125. Moreover, the “FICI of the antibiotic with GN370” value in assay [6] was 0.25. Further, the “decrease of mean bacterial densities in lungs vs vehicle controls” value in assay [7] turned out to be 1.3 log10 CFU/g. For the same compound, the “mean bacterial density in lungs compared to the vehicle control group” value in assay [8] (agent alone, intravenous, treatment from 6 hours post-infection) is listed as “moderate to no CFU/g reduction”. Also, in assay [8] (setting [18]), the “Log CFU change v. pre-treatment (at 6 hours)” value was 0.35* Log CFU, the “Mean Bacterial Density in Lung ± SD” value was 7.84 ± 1.06 Log CFU/lung and the Survival worked out at 85%. In [4], the “FICI of the antibiotic with GN370” value was found to be 0.625.

Take `O=C(O)c1cn(C2CC2)c2cc(N3CCNCC3)c(F)cc2c1=O` [ciprofloxacin, reference compound]: the “FICI of the antibiotic with GN370” value in assay [2] is on record as 0.156. Also, the Antibiotic MIC (single agent) in [3] turned out to be 8 µg/mL. Besides, the entries for the “Antibiotic FIC” value in assay [3] and in assay [3] (listed as Ciprofloxacin) were 0.25 and 0.125, respectively. Also, the “Antibiotic MIC (combo)” value in assay [3] is 2 and 1. Further, in assay [9] (P. aeruginosa (PA453)), the “change in MIC over 28-day serial passage” value is listed as “up to 512 fold”. Further, the “change in MIC over serial passage” value in assay [9] (P. aeruginosa strain CFS 1292, Day 28) is listed as 256 fold. Also, the MIC in assay [9] is 2 µg/mL (≈ 6.04 µM); in [9] (setting [19]), 256 µg/mL (≈ 773 µM); in assay [9] (setting [20]) it was 1 µg/mL (≈ 3.02 µM). Also, the “increase of MIC over serial passage (D'Lima et al.)” value in [10] is “up to 32 fold”.

In the case of `C[C@H]1COc2c(N3CCN(C)CC3)c(F)cc3c(=O)c(C(=O)O)cn1c23` [levofloxacin, reference compound], the MIC in assay [5] ([…], before serial passage) came to 1 µg/mL (≈ 2.77 µM); in assay [11] (Escherichia coli, ATCC25922) it was 0.0312 µg/mL (≈ 0.0865 µM); in assay [12] (Klebsiella pneumoniae), 0.0312 µg/mL (≈ 0.0865 µM); in assay [13] (672 h, read-out: MIC after 28-day serial passage, A. xylosoxidans), 32 µg/mL (≈ 88.6 µM); in assay [13] (672 h, read-out: MIC after 28-day serial passage, A. xylosoxidans, another instance), 128 µg/mL (≈ 354 µM); in assay [13] (read-out: MIC at start of serial passage, A. xylosoxidans), 0.25 µg/mL (≈ 0.692 µM). Besides, the MIC in [13] (read-out: MIC at start of serial passage, A. xylosoxidans, another instance) is 2 µg/mL (≈ 5.53 µM); in assay [14] (Enterobacter cloacae, ATCC13047) it was 0.0625 µg/mL (≈ 0.173 µM); in [15] (Acinetobacter baumannii, ATCCBAA747), 0.125 µg/mL (≈ 0.346 µM); in assay [9], 4 µg/mL (≈ 11.1 µM); in assay [16] (setting [19]) it was 64 µg/mL (≈ 177 µM); in assay [16] (setting [20]) it was 0.25 µg/mL (≈ 0.692 µM). The “change in MIC over 28-day serial passage” value is 128 fold in assay [11] (E. coli (ATCC 25922)), “up to 512 fold” in assay [12] (K. pneumoniae (1_1_5 HM-44)), 256 fold in [14] (E. cloacae (ATCC 13047)) and 128 fold in assay [15] (A. baumannii (ATCC BAA-747)). For the same compound, the “change in MIC over serial passage” value in assay [13] (day 28) was 128 fold; in assay [13] (day 28, another instance), 64 fold; in [16] (S. maltophilia, day 28, triplicate), “up to 256 fold”.

Take `NC[C@H]1O[C@H](O[C@H]2[C@H](O)[C@@H](O[C@H]3O[C@H](CO)[C@@H](O)[C@H](N)[C@H]3O)[C@H](N)C[C@@H]2N)[C@H](N)C[C@@H]1O` [tobramycin, reference compound]: the MIC was found to be 0.002 µg/mL (≈ 0.00428 µM) in [5] ([…], before serial passage) and 0.125 Tg/mL in assay [17]. For the same compound, the “FICI of the antibiotic with GN370” value was 0.5 in [1]; 0.375 in assay [2]; 0.5 in [3]; 0.25 in [6]; 0.5 in assay [4]. Also, the Antibiotic MIC (single agent) in assay [3] was 0.125 µg/mL. Further, the “Antibiotic FIC” value in assay [3] amounted to 0.125. Also, the “Antibiotic MIC (combo)” value in assay [3] is 0.016 and 0.015.

In the case of Colistin, the “FICI of the antibiotic with GN370” value in assay [1] is listed as 0.25; in [2] it was 0.187; in assay [3] it was 0.499; in assay [6], 0.375; in assay [4], 0.375. Further, the Antibiotic MIC (single agent) in assay [3] came out at 0.063 µg/mL. In addition, in assay [3], the “Antibiotic FIC” value is recorded as 0.125. The “Antibiotic MIC (combo)” value in assay [3] came to 0.008.

For the compound Gentamicin, the “FICI of the antibiotic with GN370” value in assay [1] was 0.25; in [2], 0.375; in [6], 0.312; in assay [4] it was 0.563.
